Test results: patent US12568972B2, “Pyridazinol compounds and derivatives, preparation methods, herbicidal compositions and applications thereof” (Qingdao Kingagroot Chemical Compound Co., Ltd., priority 2018, dated 2026)
Like-named read-outs stand apart in the source and are kept apart here.

Assays:
Assay type in all cases: in vivo
[1] = tested on: weeds; test: Control effect and synergistic effect of the mixture of (i) and (ii), postemergence (Gowing method)
From the text: Wherein, in the formula, X represented the fresh weight inhibition rate of the active ingredient A in a dosage of P, and Y represented the fresh weight inhibition rate of the active ingredient B in a dosage of Q. The statistic results are shown in Table 6.

[2] = tested on: Amaranthus retroflexus; test: Post-emergence test, weed control effect; settings: after 3 weeks
Summary of the method: (§1)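 Seeds are sown in soil pots and raised in the greenhouse until the 2-3 leaf stage. Plants are then sprayed with compound dissolved in acetone with Tween-80, diluted in water and supplemented with 80% vegetable oil methyl ester synergist at 1500 g/ha, and fresh weight inhibition is rated 0-10 three weeks later.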

[3] = tested on: Rorippa indica; test: Post-emergence test, weed control effect; settings: after 3 weeks
Summary of the method: as §1

[4] = tested on: Veronica polita; test: Post-emergence test, weed control effect; settings: after 3 weeks
Summary of the method: as §1

[5] = tested on: Chenopodiaceae; test: Post-emergence test, weed control effect; settings: after 3 weeks
Summary of the method: as §1

[6] = Abutilon theophrasti, 50 g a.i./ha, postemergence, 20 days after treatment

## Cc1nn(C)cc1C(=O)Oc1c(C(=O)c2ccc(C(F)(F)F)cc2S(C)(=O)=O)c(C)nn1C [Shuangzuocaotong]
[1]; Sisymbrium sophia, 5 g a.i./ha, postemergence, 20 days after treatment
  Inhibitory effect of component (ii) when applied alone at same dose: 40%

## O=C(O)c1c(Cl)ccc2cc(Cl)cnc12 [Quinclorac]
[1]; post-emergence, 480 h, Galium aparine, 50 g a.i./ha, postemergence, 20 days after treatment, read-out: Inhibitory effect of component (ii) when applied alone at same dose
  pest or weed control at 50 g/ha: 50%

## Nc1c(Cl)c(Cl)nc(C(=O)O)c1Cl [Picloram]
[1]; post-emergence, 480 h, Abutilon theophrasti, 50 g a.i./ha, postemergence, 20 days after treatment, read-out: Inhibitory effect of component (ii) when applied alone at same dose
  pest or weed control at 50 g/ha: 40%

## O=C(Nc1ccc(F)cc1)c1cccc(Oc2cccc(C(F)(F)F)c2)n1 [Picolinafen]
[1]; [6]
  Inhibitory effect of component (ii) when applied alone at same dose: 30%

## COC(=O)c1nc(-c2ccc(Cl)c(OC)c2F)cc(N)c1Cl [Halauxifen-methyl]
[1]; Abutilon theophrasti, 2 g a.i./ha, postemergence, 20 days after treatment
  Inhibitory effect of component (ii) when applied alone at same dose: 40%

## O=C(Nc1ccc(F)cc1F)c1cccnc1Oc1cccc(C(F)(F)F)c1 [Diflufenican]
[1]; post-emergence, 480 h, Veronica polita, 100 g a.i./ha, postemergence, 20 days after treatment, read-out: Inhibitory effect of component (ii) when applied alone at same dose
  pest or weed control at 100 g/ha: 45%

## CNC1=C(c2cccc(C(F)(F)F)c2)C(=O)C(c2ccccc2)O1 (centres unmarked) [Flurtamone]
[1]; Galium aparine, post-emergence, 480 h, read-out: Inhibitory effect of component (ii) when applied alone at same dose
  pest or weed control at 100 g/ha: 35%

## CS(=O)(=O)c1ccc(C(=O)C2C(=O)CCCC2=O)c(Cl)c1COCC1CCCO1 (centres unmarked) [Tefuryltrione]
[1]; [6]
  Inhibitory effect of component (ii) when applied alone at same dose: 40%

## Cc1c(C(=O)c2cnn(C)c2O)ccc(S(C)(=O)=O)c1C1=NOCC1 [Topramezone]
[1]; Abutilon theophrasti, 5 g a.i./ha, postemergence, 20 days after treatment
  Inhibitory effect of component (ii) when applied alone at same dose: 40%

## CS(=O)(=O)c1ccc(C(=O)C2C(=O)CCCC2=O)c(Cl)c1COCC(F)(F)F [Tembotrione]
[1]; post-emergence, 480 h, Abutilon theophrasti, 15 g a.i./ha, postemergence, 20 days after treatment, read-out: Inhibitory effect of component (ii) when applied alone at same dose
  pest or weed control at 15 g/ha: 30%

## CS(=O)(=O)c1ccc(C(=O)C2C(=O)CCCC2=O)c(Cl)c1 [Sulcotrione]
[1]; Abutilon theophrasti, post-emergence, 480 h, read-out: Inhibitory effect of component (ii) when applied alone at same dose
  pest or weed control at 50 g/ha: 30%

## CCn1ncc(C(=O)c2ccc(S(C)(=O)=O)c(COCC(F)(F)F)c2Cl)c1OC(=O)c1cn(C)nc1C [Benzuofucaotong]
[1]; Abutilon theophrasti, 15 g a.i./ha, postemergence, 20 days after treatment
  Inhibitory effect of component (ii) when applied alone at same dose: 40%

## Cc1cc(Cl)ccc1OC(C)C(=O)O (centres unmarked) [2-methyl 4-chlorophenoxypropionic acid]
[1]; Sisymbrium sophia, 100 g a.i./ha, postemergence, 20 days after treatment
  Inhibitory effect of component (ii) when applied alone at same dose: 30%

## O=C(O)c1nc(Cl)ccc1Cl [Clopyralid]
[1]; post-emergence, 480 h, Galinsoga parviflora, 50 g a.i./ha, postemergence, 20 days after treatment, read-out: Inhibitory effect of component (ii) when applied alone at same dose
  pest or weed control at 50 g/ha: 40%

## O=C1C(Cl)C(CCl)CN1c1cccc(C(F)(F)F)c1 (centres unmarked) [Flurochloridone]
[1]; post-emergence, 480 h, Galium aparine, 100 g a.i./ha, postemergence, 20 days after treatment, read-out: Inhibitory effect of component (ii) when applied alone at same dose
  pest or weed control at 100 g/ha: 40%

## Cc1ccc(C(=O)COc2c(C(=O)c3ccc(Cl)c(C)c3Cl)c(C)nn2C)cc1 [Benzofenap]
[1]; post-emergence, 480 h, Abutilon theophrasti, 150 g a.i./ha, postemergence, 20 days after treatment, read-out: Inhibitory effect of component (ii) when applied alone at same dose
  pest or weed control at 150 g/ha: 40%

## COc1ccc(Cl)c(-c2nnc(C(F)(F)F)cc2O)c1 [Compound 70]
[2]; dose 1000 g/ha
  weed control effect (activity level), Amaranthus retroflexus: 10
[3]; dose 1000 g/ha
  weed control effect (activity level), Rorippa indica: 10
[4]; dose 1000 g/ha
  weed control effect (activity level), Veronica polita: 10
[5]; dose 1000 g/ha
  weed control effect (activity level), Chenopodiaceae: 10

## Oc1cc(C(F)(F)F)nnc1-c1ccccc1C(F)(F)F [Compound 737]
[2]; Dose 3000 g/ha
  weed control effect (activity level), Amaranthus retroflexus: 10
[3]; Dose 3000 g/ha
  weed control effect (activity level), Rorippa indica: 10
[4]; Dose 3000 g/ha
  weed control effect (activity level), Veronica polita: 10
[5]; Dose 3000 g/ha
  weed control effect (activity level), Chenopodiaceae: 10

## Oc1cc(C(F)(F)F)nnc1-c1ccc(C2CC2Cl)cc1 (centres unmarked) [Compound 111]
[2]; dose 1000 g/ha
  weed control effect (activity level), Amaranthus retroflexus: 10
[3]; dose 1000 g/ha
  weed control effect (activity level), Rorippa indica: 10
[4]; dose 1000 g/ha
  weed control effect (activity level), Veronica polita: 10
[5]; dose 1000 g/ha
  weed control effect (activity level), Chenopodiaceae: 10

## Oc1cc(C(F)(F)F)nnc1-c1ccc(I)cc1 [Compound 33]
[2]; dose 1000 g/ha
  weed control effect (activity level), Amaranthus retroflexus: 10
[3]; dose 1000 g/ha
  weed control effect (activity level), Rorippa indica: 10
[4]; dose 1000 g/ha
  weed control effect (activity level), Veronica polita: 10
[5]; dose 1000 g/ha
  weed control effect (activity level), Chenopodiaceae: 10

## O=C(Oc1cc(C(F)(F)F)nnc1-c1ccc(F)c(F)c1)c1cnccn1 [Compound 1-112]
[2]; Dose 3000 g/ha
  weed control effect, Amaranthus retroflexus (activity level): 10
[3]; Dose 3000 g/ha
  weed control effect, Rorippa indica (activity level): 10
[4]; Dose 3000 g/ha
  weed control effect, Veronica polita (activity level): 10
[5]; Dose 3000 g/ha
  weed control effect, Chenopodiaceae (activity level): 10

## Oc1cc(C(F)(F)F)nnc1-c1ccc2cc[nH]c2c1 [Compound 588]
[2]; Dose 3000 g/ha
  weed control effect (activity level), Amaranthus retroflexus: 10
[3]; Dose 3000 g/ha
  weed control effect (activity level), Rorippa indica: 10
[4]; Dose 3000 g/ha
  weed control effect (activity level), Veronica polita: 10
[5]; Dose 3000 g/ha
  weed control effect (activity level), Chenopodiaceae: 10

## CC(=O)Oc1cc(C(F)(F)F)nnc1-c1ccc(F)cc1 [Compound 1-2]
[2]; Dose 3000 g/ha
  weed control effect, Amaranthus retroflexus (activity level): 10
[3]; Dose 3000 g/ha
  weed control effect, Rorippa indica (activity level): 10
[4]; Dose 3000 g/ha
  weed control effect, Veronica polita (activity level): 10
[5]; Dose 3000 g/ha
  weed control effect, Chenopodiaceae (activity level): 10

## COc1ccc(F)cc1-c1nnc(C(F)(F)F)cc1O [Compound 60]
[2]; dose 1000 g/ha
  weed control effect (activity level), Amaranthus retroflexus: 10
[3]; dose 1000 g/ha
  weed control effect (activity level), Rorippa indica: 10
[4]; dose 1000 g/ha
  weed control effect (activity level), Veronica polita: 10
[5]; dose 1000 g/ha
  weed control effect (activity level), Chenopodiaceae: 10

## Oc1cc(C(F)(F)F)nnc1-c1ccc2ccccc2c1 [Compound 370]
[2]; dose 2000 g/ha
  weed control effect (activity level), Amaranthus retroflexus: 10
[3]; dose 2000 g/ha
  weed control effect (activity level), Rorippa indica: 10
[4]; dose 2000 g/ha
  weed control effect (activity level), Veronica polita: 10
[5]; dose 2000 g/ha
  weed control effect (activity level), Chenopodiaceae: 10

## O=[N+]([O-])c1ccc(S(=O)(=O)Oc2cc(C(F)(F)F)nnc2-c2ccc(F)c(F)c2)cc1 [Compound 1-135]
[2]; Dose 3000 g/ha
  weed control effect, Amaranthus retroflexus (activity level): 10
[3]; Dose 3000 g/ha
  weed control effect, Rorippa indica (activity level): 10
[4]; Dose 3000 g/ha
  weed control effect, Veronica polita (activity level): 10
[5]; Dose 3000 g/ha
  weed control effect, Chenopodiaceae (activity level): 10

## Cc1ccncc1-c1nnc(C(F)(F)F)cc1O [Compound 975]
[2]; Dose 3000 g/ha
  weed control effect (activity level), Amaranthus retroflexus: 10
[3]; Dose 3000 g/ha
  weed control effect (activity level), Rorippa indica: 10
[4]; Dose 3000 g/ha
  weed control effect (activity level), Veronica polita: 10
[5]; Dose 3000 g/ha
  weed control effect (activity level), Chenopodiaceae: 10

## O=S(=O)(Oc1cc(C(F)(F)F)nnc1-c1ccc(F)c(F)c1)c1ccc(Cl)cc1 [Compound 1-130]
[2]; Dose 3000 g/ha
  weed control effect, Amaranthus retroflexus (activity level): 10
[3]; Dose 3000 g/ha
  weed control effect, Rorippa indica (activity level): 10
[4]; Dose 3000 g/ha
  weed control effect, Veronica polita (activity level): 10
[5]; Dose 3000 g/ha
  weed control effect, Chenopodiaceae (activity level): 10

## COc1ccc(C(=O)Oc2cc(C(F)(F)F)nnc2-c2ccc(F)c(F)c2)cc1 [Compound 1-84]
[2]; Dose 3000 g/ha
  weed control effect, Amaranthus retroflexus (activity level): 10
[3]; Dose 3000 g/ha
  weed control effect, Rorippa indica (activity level): 10
[4]; Dose 3000 g/ha
  weed control effect, Veronica polita (activity level): 10
[5]; Dose 3000 g/ha
  weed control effect, Chenopodiaceae (activity level): 10

## CCCCOC(=S)Oc1cc(C(F)(F)F)nnc1-c1ccc(F)c(F)c1 [Compound 1-157]
[2]; Dose 3000 g/ha
  weed control effect, Amaranthus retroflexus (activity level): 10
[3]; Dose 3000 g/ha
  weed control effect, Rorippa indica (activity level): 10
[4]; Dose 3000 g/ha
  weed control effect, Veronica polita (activity level): 10
[5]; Dose 3000 g/ha
  weed control effect, Chenopodiaceae (activity level): 10

## Oc1cc(C(F)(F)F)nnc1-c1ccc(Cl)nc1F [Compound 997]
[2]; Dose 3000 g/ha
  weed control effect (activity level), Amaranthus retroflexus: 10
[3]; Dose 3000 g/ha
  weed control effect (activity level), Rorippa indica: 10
[4]; Dose 3000 g/ha
  weed control effect (activity level), Veronica polita: 10
[5]; Dose 3000 g/ha
  weed control effect (activity level), Chenopodiaceae: 10

## N#Cc1ncccc1-c1nnc(C(F)(F)F)cc1O [Compound 979]
[2]; Dose 3000 g/ha
  weed control effect (activity level), Amaranthus retroflexus: 10
[3]; Dose 3000 g/ha
  weed control effect (activity level), Rorippa indica: 10
[4]; Dose 3000 g/ha
  weed control effect (activity level), Veronica polita: 10
[5]; Dose 3000 g/ha
  weed control effect (activity level), Chenopodiaceae: 10

## Oc1cc(C(F)(F)F)nnc1-c1cccc2cccnc12 [Compound 734]
[2]; dose 1000 g/ha
  weed control effect (activity level), Amaranthus retroflexus: 10
[3]; dose 1000 g/ha
  weed control effect (activity level), Rorippa indica: 10
[4]; dose 1000 g/ha
  weed control effect (activity level), Veronica polita: 10
[5]; dose 1000 g/ha
  weed control effect (activity level), Chenopodiaceae: 10

## Oc1cc(C(F)(F)F)nnc1-c1ccc2c(c1)OCO2 [Compound 771]
[2]; Dose 3000 g/ha
  weed control effect (activity level), Amaranthus retroflexus: 10
[3]; Dose 3000 g/ha
  weed control effect (activity level), Rorippa indica: 10
[4]; Dose 3000 g/ha
  weed control effect (activity level), Veronica polita: 10
[5]; Dose 3000 g/ha
  weed control effect (activity level), Chenopodiaceae: 10

## CCc1cccc(-c2nnc(C(F)(F)F)cc2OS(=O)(=O)c2nccs2)c1 [Compound 1-145]
[2]; Dose 3000 g/ha
  weed control effect, Amaranthus retroflexus (activity level): 10
[3]; Dose 3000 g/ha
  weed control effect, Rorippa indica (activity level): 10
[4]; Dose 3000 g/ha
  weed control effect, Veronica polita (activity level): 10
[5]; Dose 3000 g/ha
  weed control effect, Chenopodiaceae (activity level): 10
